Measurements reported in ChEMBL document CHEMBL3046590, “Design and synthesis of some thiazolotriazolyl esters as anti-inflammatory and analgesic agents” (Med Chem Res, 2012).

Experiments:
Mus musculus [1] = test: Anti-inflammatory activity in Mus musculus BALB/c (mouse) assessed as carrageenan-induced paw swelling at 50 mg/kg, po administered 1 hr followed by carrageenan challenge measured at 270 min (reference value: 78 +/- 8.4 x 10^-2 mm); format: functional
Mus musculus [2] = test: Anti-inflammatory activity in Mus musculus BALB/c (mouse) assessed as carrageenan-induced paw swelling at 100 mg/kg, po administered 1 hr followed by carrageenan challenge measured at 180 min (reference value: 52 +/- 4.6 x 10^-2 mm); format: functional
Mus musculus [3] = test: Anti-inflammatory activity in Mus musculus BALB/c (mouse) assessed as carrageenan-induced paw swelling at 200 mg/kg, po administered 1 hr followed by carrageenan challenge measured at 360 min (reference value: 105 +/- 4.5 x 10^-2 mm); format: functional
Mus musculus [4] = test: Anti-inflammatory activity in Mus musculus BALB/c (mouse) assessed as carrageenan-induced paw swelling at 100 mg/kg, po administered 1 hr followed by carrageenan challenge measured at 360 min (reference value: 105 +/- 4.5 x 10^-2 mm); format: functional
Mus musculus [5] = test: Toxicity in Mus musculus BALB/c (mouse) assessed as behavioral changes at 50 to 200 mg/kg, po after 72 hr; format: organism-based; parameters: dose 50-200 mg/kg, route oral; conditions: in vivo
Mus musculus [6] = test: Anti-inflammatory activity in Mus musculus BALB/c (mouse) assessed as carrageenan-induced paw swelling at 200 mg/kg, po administered 1 hr followed by carrageenan challenge measured at 180 min (reference value: 52 +/- 4.6 x 10^-2 mm); format: functional
Mus musculus [7] = test: Anti-inflammatory activity in Mus musculus BALB/c (mouse) assessed as carrageenan-induced paw swelling at 50 mg/kg, po administered 1 hr followed by carrageenan challenge measured at 90 min (reference value: 39 +/- 5.6 x 10^-2 mm); format: functional
Mus musculus [8] = test: Anti-inflammatory activity in Mus musculus BALB/c (mouse) assessed as carrageenan-induced paw swelling at 50 mg/kg, po administered 1 hr followed by carrageenan challenge measured at 360 min (reference value: 105 +/- 4.5 x 10^-2 mm); format: functional
Mus musculus [9] = test: Anti-inflammatory activity in Mus musculus BALB/c (mouse) assessed as inhibition of carrageenan-induced paw swelling at 100 mg/kg, po administered 1 hr followed by carrageenan challenge measured at 270 min relative to control; format: functional
Mus musculus [10] = test: Anti-inflammatory activity in Mus musculus BALB/c (mouse) assessed as inhibition of carrageenan-induced paw swelling at 100 mg/kg, po administered 1 hr followed by carrageenan challenge measured at 180 min relative to control; format: functional
Mus musculus [11] = test: Anti-inflammatory activity in Mus musculus BALB/c (mouse) assessed as carrageenan-induced paw swelling at 200 mg/kg, po administered 1 hr followed by carrageenan challenge measured at 90 min (reference value: 39 +/- 5.6 x 10^-2 mm); format: functional
Mus musculus [12] = test: Anti-inflammatory activity in Mus musculus BALB/c (mouse) assessed as carrageenan-induced paw swelling at 100 mg/kg, po administered 1 hr followed by carrageenan challenge measured at 270 min (reference value: 78 +/- 8.4 x 10^-2 mm); format: functional
Mus musculus [13] = test: Anti-inflammatory activity in Mus musculus BALB/c (mouse) assessed as carrageenan-induced paw swelling at 200 mg/kg, po administered 1 hr followed by carrageenan challenge measured at 270 min (reference value: 78 +/- 8.4 x 10^-2 mm); format: functional
Mus musculus [14] = test: Anti-inflammatory activity in Mus musculus BALB/c (mouse) assessed as inhibition of carrageenan-induced paw swelling at 100 mg/kg, po administered 1 hr followed by carrageenan challenge measured at 360 min relative to control; format: functional
Mus musculus [15] = test: Anti-inflammatory activity in Mus musculus BALB/c (mouse) assessed as carrageenan-induced paw swelling at 50 mg/kg, po administered 1 hr followed by carrageenan challenge measured at 180 min (reference value: 52 +/- 4.6 x 10^-2 mm); format: functional
Mus musculus [16] = test: Antioxidant activity in Mus musculus BALB/c (mouse) stomach assessed as TBARS level at 100 mg/kg, po (reference value: 80.4 +/- 5.4 nmol/g ); format: functional
Mus musculus [17] = test: Anti-inflammatory activity in Mus musculus BALB/c (mouse) assessed as carrageenan-induced paw swelling at 100 mg/kg, po administered 1 hr followed by carrageenan challenge measured at 90 min (reference value: 39 +/- 5.6 x 10^-2 mm); format: functional
Mus musculus [18] = test: Toxicity in Mus musculus BALB/c (mouse) assessed as mortality at 50 to 200 mg/kg, po after 72 hr; format: organism-based; parameters: dose 50-200 mg/kg, route oral; conditions: in vivo
Mus musculus [19] = test: Anti-inflammatory activity in Mus musculus BALB/c (mouse) assessed as inhibition of carrageenan-induced paw swelling at 50 mg/kg, po administered 1 hr followed by carrageenan challenge measured at 360 min relative to control; format: functional
Mus musculus [20] = test: Analgesic activity in Mus musculus BALB/c (mouse) assessed as inhibition of acetic acid-induced writhing at 100 mg/kg, po administered 1 hr followed by acetic acid challenge measured for 10 min; format: functional
Mus musculus [21] = test: Anti-inflammatory activity in Mus musculus BALB/c (mouse) assessed as inhibition of carrageenan-induced paw swelling at 50 mg/kg, po administered 1 hr followed by carrageenan challenge measured at 270 min relative to control; format: functional
Mus musculus [22] = test: Anti-inflammatory activity in Mus musculus BALB/c (mouse) assessed as inhibition of carrageenan-induced paw swelling at 200 mg/kg, po administered 1 hr followed by carrageenan challenge measured at 360 min relative to control; format: functional
Mus musculus [23] = test: Anti-inflammatory activity in Mus musculus BALB/c (mouse) assessed as inhibition of carrageenan-induced paw swelling at 200 mg/kg, po administered 1 hr followed by carrageenan challenge measured at 270 min relative to control; format: functional
Mus musculus [24] = test: Anti-inflammatory activity in Mus musculus BALB/c (mouse) assessed as inhibition of carrageenan-induced paw swelling at 200 mg/kg, po administered 1 hr followed by carrageenan challenge measured at 180 min relative to control; format: functional

| Structure (SMILES) | Activity (Mus musculus [1]) | Activity (Mus musculus [2]) | Activity (Mus musculus [3]) | Activity (Mus musculus [4]) | Activity (Mus musculus [5]) | Activity (Mus musculus [6]) | Activity (Mus musculus [7]) | Activity (Mus musculus [8]) | inhibition in vivo at 100 mg/kg (Mus musculus [9]) | inhibition in vivo at 100 mg/kg (Mus musculus [10]) | Activity (Mus musculus [11]) | Activity (Mus musculus [12]) | Activity (Mus musculus [13]) | inhibition in vivo at 100 mg/kg (Mus musculus [14]) | Activity (Mus musculus [15]) | Activity (Mus musculus [16]) | Activity (Mus musculus [17]) | Activity (Mus musculus [18]) | inhibition in vivo at 50 mg/kg (Mus musculus [19]) | inhibition in vivo at 100 mg/kg (Mus musculus [20]) | other results |
| --- | --- | --- | --- | --- | --- | --- | --- | --- | --- | --- | --- | --- | --- | --- | --- | --- | --- | --- | --- | --- | --- |
| CCOC(=O)Cc1csc2nc(-c3ccccc3)nn12 | 79.7 ×10⁻² mm | 40 ×10⁻² mm | 105.4 ×10⁻² mm | 87.5 ×10⁻² mm | Non-toxic | 48.1 ×10⁻² mm | 76.3 ×10⁻² mm | 102 ×10⁻² mm | 31.1% | 23.1% | 35.2 ×10⁻² mm | 53.7 ×10⁻² mm | 75 ×10⁻² mm | 16.7% | 53.5 ×10⁻² mm | 174.1 nmol/g | 45 ×10⁻² mm | Non-toxic |  |  |  |
| CCOC(=O)Cc1csc2nc(Cc3cc(OC)c(OC)c(OC)c3)nn12 | 61.3 ×10⁻² mm | 32.3 ×10⁻² mm | 93.4 ×10⁻² mm | 129.5 ×10⁻² mm | Non-toxic | 42.5 ×10⁻² mm | 55.1 ×10⁻² mm | 87.2 ×10⁻² mm |  | 37.9% | 38 ×10⁻² mm | 105 ×10⁻² mm | 70.3 ×10⁻² mm |  | 46 ×10⁻² mm | 157.1 nmol/g | 40.8 ×10⁻² mm | Non-toxic | 16.9% | 62.8% | inhibition in vivo at 50 mg/kg (Mus musculus [21]): 21.4% |
| CCOC(=O)c1sc2nc(-c3ccc(Cl)cc3)nn2c1C | 91.1 ×10⁻² mm | 42.8 ×10⁻² mm | 98.3 ×10⁻² mm | 75.4 ×10⁻² mm | Non-toxic | 45.7 ×10⁻² mm | 66.1 ×10⁻² mm | 117.8 ×10⁻² mm |  | 17.7% | 35.7 ×10⁻² mm | 69.9 ×10⁻² mm | 69.6 ×10⁻² mm | 28.2% | 70 ×10⁻² mm | 116.9 nmol/g | 45.5 ×10⁻² mm | Non-toxic |  | 89.7% |  |
| COc1ccc(CCC2=NC(=S)N=N2)cc1 | 73.6 ×10⁻² mm | 25.3 ×10⁻² mm | 87.6 ×10⁻² mm | 80.5 ×10⁻² mm | Non-toxic | 46.4 ×10⁻² mm | 50 ×10⁻² mm | 78.2 ×10⁻² mm | 30.8% | 51.3% | 42.1 ×10⁻² mm | 54 ×10⁻² mm | 66.3 ×10⁻² mm | 23.3% | 46.8 ×10⁻² mm | 116.2 nmol/g | 36.3 ×10⁻² mm | Non-toxic | 25.5% | 24.3% | inhibition in vivo at 200 mg/kg (Mus musculus [22]): 16.6%; inhibition in vivo at 200 mg/kg (Mus musculus [23]): 15% |
| COc1cc(CC2=NC(=S)N=N2)cc(OC)c1OC | 57.8 ×10⁻² mm | 42.5 ×10⁻² mm | 104.5 ×10⁻² mm | 65 ×10⁻² mm | Non-toxic | 49.8 ×10⁻² mm | 35.6 ×10⁻² mm | 77.3 ×10⁻² mm | 23.1% | 18.3% | 45.6 ×10⁻² mm | 60 ×10⁻² mm | 77 ×10⁻² mm | 38.1% | 46 ×10⁻² mm | 115.1 nmol/g | 36.2 ×10⁻² mm | Non-toxic | 26.4% |  | inhibition in vivo at 50 mg/kg (Mus musculus [21]): 25.9% |
| CCOC(=O)Cc1csc2nc(-c3cc(Cl)cc(Cl)c3)nn12 | 78 ×10⁻² mm | 66.2 ×10⁻² mm | 83.1 ×10⁻² mm | 60 ×10⁻² mm | Non-toxic | 43 ×10⁻² mm | 70.4 ×10⁻² mm | 96 ×10⁻² mm | 16.7% |  | 41.6 ×10⁻² mm | 65 ×10⁻² mm | 61.3 ×10⁻² mm | 42.8% | 49 ×10⁻² mm | 200.1 nmol/g | 40 ×10⁻² mm | Non-toxic |  | 35.9% | inhibition in vivo at 200 mg/kg (Mus musculus [22]): 20.8%; inhibition in vivo at 200 mg/kg (Mus musculus [24]): 17.3%; inhibition in vivo at 200 mg/kg (Mus musculus [23]): 21.4% |
| CCOC(=O)Cc1csc2nc(-c3ccc(OC)cc3)nn12 | 76.2 ×10⁻² mm | 38.3 ×10⁻² mm | 110.8 ×10⁻² mm | 122.5 ×10⁻² mm | Non-toxic | 52.2 ×10⁻² mm | 71.2 ×10⁻² mm | 96.1 ×10⁻² mm |  | 24.4% | 43.7 ×10⁻² mm | 90 ×10⁻² mm | 79 ×10⁻² mm |  | 65.4 ×10⁻² mm | 128.7 nmol/g | 47.9 ×10⁻² mm | Non-toxic |  | 24.3% |  |
| Sc1n[nH]c(-c2ccccc2)n1 | 61.3 ×10⁻² mm | 36.9 ×10⁻² mm | 105.4 ×10⁻² mm | 126 ×10⁻² mm | Non-toxic | 51.7 ×10⁻² mm | 39.8 ×10⁻² mm | 89.1 ×10⁻² mm |  | 27.1% | 45.8 ×10⁻² mm | 111 ×10⁻² mm | 74.3 ×10⁻² mm |  | 34.9 ×10⁻² mm | 88.4 nmol/g | 44.3 ×10⁻² mm | Non-toxic | 15.1% | 35.9% | inhibition in vivo at 50 mg/kg (Mus musculus [21]): 21.4% |
| CC(=O)Oc1ccccc1C(=O)O [ASPIRIN] |  |  |  |  | Non-toxic |  |  |  |  |  |  |  |  |  |  | 121 nmol/g |  | Non-toxic |  | 50% |  |
